From patent US20130165426A1, “IMIDAZOPYRIDINE, IMIDAZOPYRIMIDINE AND IMIDAZOPYRAZINE DERIVATIVES AS MELANOCORTIN-4 RECEPTOR MODULATORS” (UNIVERSITÉ DE MONTRÉAL, priority 2010, published 2013)
Non-standard residues stand in square brackets, D forms with d. Nle = CCCC[C@H](N)C(=O)O

system: MC4R as compared to the MC5R; experiment: not given; settings: Nijenhuis et al. Peptides 2003; cited from earlier work

| Compound | selectivity for the MC4R as compared to the MC5R (MC4R/MC5R) [fold] |
| --- | --- |
| Ac-Nle-Gly-Lys-D-NaI(2)-Arg-Trp-Gly-NH(2) | 109 |
| Ac-Nle-Gly-Lys-D-Phe-Arg-Trp-Gly-NH(2) (Ac-[Nle]GK[dF]RWG-NH2; SMILES CCCC[C@H](NC(C)=O)C(=O)NCC(=O)N[C@@H](CCCCN)C(=O)N[C@H](Cc1ccccc1)C(=O)N[C@@H](CCCNC(=N)N)C(=O)N[C@@H](Cc1c[nH]c2ccccc12)C(=O)NCC(N)=O) | 110 |

system: MC4R as compared to the MC3R; experiment: not given; settings: Nijenhuis et al. 2003; Sutton et al. 2008; cited from earlier work

| Compound | selectivity for the MC4R as compared to the MC3R (MC4R/MC3R) [fold] |
| --- | --- |
| Ac-Nle-Gly-Lys-D-NaI(2)-Arg-Trp-Gly-NH(2) | 34 |
| Ac-Nle-Gly-Lys-D-Phe-Arg-Trp-Gly-NH(2) (Ac-[Nle]GK[dF]RWG-NH2; SMILES CCCC[C@H](NC(C)=O)C(=O)NCC(=O)N[C@@H](CCCCN)C(=O)N[C@H](Cc1ccccc1)C(=O)N[C@@H](CCCNC(=N)N)C(=O)N[C@@H](Cc1c[nH]c2ccccc12)C(=O)NCC(N)=O) | 90 |

target: T1, wild-type human melanocortin 4 receptor (WT-hMC4R) (Homo sapiens, UniProt P32245); experiment: Cyclic AMP assay (HTRF), antagonist competition against NDP-α-MSH; type: cell-based; settings: HEK293T cells stably expressing WT-hMC4R; inhibition of response to 4 nM NDP-α-MSH; cAMP
T1 construct: expressed in transfected cells
Experimental: The general procedures described above were used to prepare the examples described below. Reported HPLC retention time are for reverse-phase HPLC (Agilent, 1200 series) using the conditions reported above (See “General” section). Mass spectra were recorded on a 6210 G1969A LC/MSD TOF spectrometer from Agilent Technologies using the LC conditions reported above (See “General” section). IC50 values were obtained using the cAMP assay described below.
IC50 value is the half maximal concentration of the tested compound to inhibit half of the maximal response of the agonist NDP-α-MSH. It is a measurement of the antagonist compound potency.
Intracellular cyclic 3′-5′ adenosine monophosphate (cAMP) accumulation was measured using a competitive immunoassay based on HTRF (Homogeneous Time-Resolved Fluorescence) technology (cAMP dynamic-2, Cis-Bio).
HEK293T stable cell line expressing double-tagged WT-hMC4R construct were collected and washed in cAMP buffer (1×D-PBS pH 7.4, 0.1% glucose). 40,000 cells/well were then dispensed in 96-well plates in cAMP buffer [1×D-PBS, 1% BSA, 0.1% Glucose, 0.75 mM 3-isobutyl-1-methyl-xanthine (IBMX, Sigma)] and incubated either for antagonist competition assay: 1 hour at 37° C. with various concentrations of compound [0.01 nM-10 μM] followed by 30 min incubation at 37° C. with 4 nM of NDP-α-MSH (Sigma) or for agonist assay: 1 hour at 37° C. with various concentrations of compound [0.01 nM-10 μM]. 10,000 cells were transferred in 384-well plates, lysed and incubated with cAMP labeled with the dye d2 and anti-cAMP M-Antidody labeled with Cryptate following the manufacturer's protocol.
Reading of HTRF signal was performed on Artemis TR-FRET plate reader (Cosmo Bio).
All curve fitting was conducted using non-linear regression analyses from PRISM (version 4.0c, GraphPad Inc.) and the determination of Rmax and EC50 or IC50 parameters were obtained from sigmoidal dose-response phase (variable slope) equation.
A cDNA encoding a wild-type human MC4R with a 3 tandem copies of Hemaglutinine (HA) epitote sequence from UMR cDNA resource center was modified using known techniques in the art (e.g., PCR, cloning) to fused in frame at the C-terminal a venus-Yellow Fluorescent Protein (YFP) cDNA.
The resultant cDNA was then subcloned in eukaryotic expression vector, e.g. pcDNA 3.1(+) (Invitrogen).
The double tagged WT-hMC4R was transfected in HEK293T cells with lipofectamine (Invitrogen) following the manufacturer's instructions and permanently transfected clonal cell lines were selected by resistance to the neomycin analog G418.
HEK293T stable cell line expressing wild-type human melanocortin 4 receptor (WT-hMC4R) containing an N-terminal 3×HA epitope tag and an intracellular C-terminal venus-yellow fluorescent protein (v-YFP) were maintained at 37° C. in humidified air containing 5% CO2 in Dulbecoo's modified Eagle's medium (DMEM) supplemented with 10% fetal bovine serum (FBS), 100 U/ml penicillin/streptomycin (DMEM complete/10% FBS). Cells were generally at 70%-80% confluence on the day of assay.

T1 sequence (P32245 whole entry): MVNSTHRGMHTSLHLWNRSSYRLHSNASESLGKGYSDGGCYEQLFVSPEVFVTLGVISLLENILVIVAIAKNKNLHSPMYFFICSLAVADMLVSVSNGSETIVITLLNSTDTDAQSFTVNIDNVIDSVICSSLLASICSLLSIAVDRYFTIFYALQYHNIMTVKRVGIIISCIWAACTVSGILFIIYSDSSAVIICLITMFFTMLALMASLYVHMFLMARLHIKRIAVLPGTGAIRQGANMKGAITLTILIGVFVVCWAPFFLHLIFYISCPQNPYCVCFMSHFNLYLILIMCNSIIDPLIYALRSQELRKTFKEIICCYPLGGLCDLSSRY

| IC50 [nM] | Compound |
| --- | --- |
| 100 to 1000 | CCCCN(CCCC)C(=O)c1ccc2nc(Nc3ccc(C(=O)N4CCOCC4)cc3)n(CCCN3CCCCC3)c2n1 [Cpd 59] |
| 1000 to 15000 | CCCCN(CCCC)C(=O)c1cc2c(cn1)nc(-c1ccc(OC)cc1)n2CCCN1CCCCC1 [Cpd 60] |
| 1000 to 15000 | CCCCN(CCCC)C(=O)c1ccc2nc(SCC)n(CCCN3CCCCC3)c2n1 [Cpd 61] |
| 100 to 1000 | CCCCN(CCCC)C(=O)c1ccc2nc(Oc3ccc(OC)cc3)n(CCCN3CCCCC3)c2n1 [Cpd 62] |
| 100 to 1000 | COc1ccc(-c2nc3cnc(C(=O)N(CCC(C)C)CCC(C)C)cc3n2CCCN2CCCCC2)cc1 [Cpd 63] |
| 1000 to 15000 | COc1ccc(Br)cc1-c1nc2cnc(C(=O)N(CCC(C)C)CCC(C)C)cc2n1CCCN1CCCCC1 [Cpd 64] |
| < 100 | CC(C)CCN(CCC(C)C)C(=O)c1cc2c(cn1)nc(-c1cc3ccccc3s1)n2CCCN1CCCCC1 [Cpd 65] |
| 100 to 1000 | CCCCN(CCCC)C(=O)c1cc2c(cn1)nc(Oc1ccc(OC)cc1)n2CCCN1CCCCC1 [Cpd 66] |
| 1000 to 15000 | CCCCN(CCCC)C(=O)c1ccc2nc(Nc3ccc(C(=O)O)cc3)n(CCCN3CCCCC3)c2n1 [Cpd 67] |
| < 100 | CC(=O)c1ccc(Nc2nc3ccc(C(=O)N(CCC(C)C)CCC(C)C)nc3n2CCCN2CCCCC2)cc1 [Cpd 68] |
| < 100 | CC(C)CCN(CCC(C)C)C(=O)c1ccc2nc(Nc3ccc(C(C)O)cc3)n(CCCN3CCCCC3)c2n1 (stereo not drawn) [Cpd 69] |
| < 100 | CC(C)CCN(CCC(C)C)C(=O)c1ccc2nc(Nc3ccc(C(C)(C)O)cc3)n(CCCN3CCCCC3)c2n1 [Cpd 70] |
| < 100 | COC(=O)c1ccc(Nc2nc3ccc(C(=O)N(CCC(C)C)CCC(C)C)nc3n2CCCN2CCCCC2)cc1 [Cpd 71] |
| 100 to 1000 | COc1ccc(-c2nc3ccc(C(=O)N(CCC(C)C)CCC(C)C)nc3n2CCCN2CCCCC2)cc1 [Cpd 72] |
| 100 to 1000 | CC(C)CCN(CCC(C)C)C(=O)c1ccc2nc(-c3ccc4c(c3)OCO4)n(CCCN3CCCCC3)c2n1 [Cpd 73] |
| 100 to 1000 | COc1ccc(Nc2nc3ccc(C(=O)N(CCC(C)C)CCC(C)C)nc3n2CCCN2CCOCC2)cc1 [Cpd 74] |
| 100 to 1000 | CC(C)CCN(CCC(C)C)C(=O)c1ccc2nc(Nc3cccnc3)n(CCCN3CCOCC3)c2n1 [Cpd 75] |
| 100 to 1000 | CC(C)CCN(CCC(C)C)C(=O)c1ccc2nc(NCc3ccc4c(c3)OCO4)n(CCCN3CCOCC3)c2n1 [Cpd 76] |
| 1000 to 15000 | COc1ccc(-c2nc3ccc(C(=O)N(CCC(C)C)CCC(C)C)nc3n2CCCN2CCOCC2)cc1 [Cpd 77] |
| 1000 to 15000 | CC(=O)N1CCC(c2nc3ccc(C(=O)N(CCC(C)C)CCC(C)C)nc3n2CCCN2CCOCC2)CC1 [Cpd 78] |
